# d = 2'-deoxy (DNA); r = 2'-OH (RNA)
# Key:
# [1] = test system: thymidylate synthase (TS) protein; experiment: Immunoblot analysis of TS protein (free and ITC-bound), Odyssey quantitation; assay type: cell-based, human; conditions: RKO cells, 48 hr
# Method: FIGS. 1A-B illustrate the effect of FdU incorporation in ssiRNA on TS protein expression. RKO cells were transfected with TS6 ssiRNAs (1 nM) containing various 3′-overhangs. After 6 hr, the medium was replaced. After an additional 48 hr, cells were harvested and processed for immunoblot and qPCR analysis as described in the Materials and Methods section. (A) Representative blot from 4 experiments. (B) All qPCR values represent the mean±S.D. from at least 3 separate experiments performed in triplicate. The normalized amount of TS mRNA from mock-transfected cells (LF2000) was set to 1.0 and all other values compared against that value. ITC, inhibitory ternary complex;
# Cells were plated at a density of 1.5×10^5 cells/well. On the following day, ssiRNAs were complexed with Lipofectamine 2000 (LF2000, Invitrogen) in serum-free RPMI-1640 medium and added to the plated cells. After 48 hr, cells were rinsed with PBS and scraped in cell lysis buffer (10 mM Tris pH7.4, 150 mM NaCl, 1 mM EDTA, 1% IGEPAL, 0.5% sodium deoxycholate, and 0.1% SDS) containing freshly added Protease Inhibitor Cocktail (Sigma; St. Louis, Mo.), 1 mM phenylmethylsulfonyl fluoride, and phosphatase inhibitors (Sigma). Lysates were sonicated and then centrifuged at 14,000 rpm for 30 min at 4° C. to remove debris. Cell lysates were stored at −80° C. for future use. For mRNA analysis, total RNA was extracted using Trizol (Invitrogen) and stored at −80° C. for future use.
# Protein concentrations of cell lysates were determined using the DC Protein Assay (Bio-Rad; Hercules, Calif.). Equal amounts of protein (30 μg) from each cell lysate were resolved on SDS-PAGE using the method of Laemmli (Reference 19) and transferred onto 0.45 μm nitrocellulose membranes (Bio-Rad). Membranes were blocked and incubated overnight with primary antibodies at 4° C. The following antibodies were used in the experiments: anti-TS (Clone 4H4B1; Invitrogen), anti-TS (#5449; Cell Signaling; San Francisco, Calif.), anti-p21 Waf1/Cip1 (#2947; Cell Signaling), anti-p53 (#sc-126; Santa Cruz Biotechnology; Santa Cruz, Calif.), anti-PARP (#9542; Cell Signaling), anti-Fas (#4233; Cell Signaling), anti-phospho-histone H2A.X (Ser139) (#2577; Cell Signaling), anti-histone H2A.X (#7631; Cell Signaling), anti-phospho-ATM (pS1981; EPITOMICS Inc.; Burlingame, Calif.), anti-ATM (#A1106; Sigma), and anti-α-tubulin (EMD Biosciences; San Diego, Calif.). After multiple TBST washes (1×TBS, 0.1% Tween-20), membranes were incubated with corresponding horseradish peroxidase-conjugated secondary antibodies (Bio-Rad) for 1 hr at room temperature. Proteins were detected by the enhanced chemiluminescence method (SuperSignal West Pico substrate; Pierce; Rockford, Ill.). Quantitation of signal intensities was performed by densitometry on a Xerox scanner using NIH IMAGEJ software.
# Immunoblots were prepared as described above. After incubation with anti-TS polyclonal antibody, membranes were blocked with the Odyssey blocking buffer and incubated with IRDye 800CW goat anti-rabbit antibody (LI-COR Biosciences; Lincoln, Nebr., USA) according to the manufacturer instructions. The fluorescent signal was detected and quantified using the Odyssey infrared imaging system (LI-COR).
# [2] = test system: TS6 siRNA target sequence (TS mRNA nt 1058-1077) targeted by the antisense strand; experiment: Luciferase assay, vector with TS6 target site for the antisense strand; assay type: cell-based, human; conditions: RKO cells, ssiRNA 0.1 nM, 24 hr
# Method: (§1) FIG. 3 illustrates the effect of 3′-end modification on ssiRNA strand selection. RKO cells were transfected with luciferase vectors (including the TS6 target site for either the antisense (open bars) or sense strand (hatched bars)) in combination with ssiRNAs containing different 3′-end overhangs. After 24 hr, cells were harvested and luciferase activity was determined as described in the Materials and Methods section. Firefly/renilla luciferase activity from vector-alone transfection was normalized to 100%. All values represent the mean±S.D. from at least 4 separate experiments performed in duplicate;
# (§2) FIGS. 4A-C illustrate the effect of 3′-end dU incorporation on ssiRNA strand selection. RKO cells were transfected with various TS6 ssiRNAs (1 nM) for 6 hr. After an additional 48 hr, cells were harvested for immunoblot (A) and qPCR (B) analysis. (C) Luciferase vectors (containing the siRNA target site for either the sense or antisense strand) were transfected into RKO cells in combination with different ssiRNAs. After 24 hr, cells were harvested and luciferase activity was determined as described in the Materials and Methods section. Luciferase activity from vector-alone transfection was normalized to 100%. All values represent the mean±S.D. from at least 4 separate experiments performed in duplicate;
# (§3) A DNA oligonucleotide corresponding to the TS6 siRNA target sequence (TS mRNA nt 1058-1077: 5′-[…]-3′- SEQ ID NO: 23) was annealed to its complimentary antisense sequence and ligated into the pGL3-Promoter plasmid (Promega; Madison, WI) at restriction sites Hind III and Nco I. The luciferase mRNA expressed from this plasmid was targeted by the antisense strand of TS6 siRNA. A second plasmid was constructed with the TS mRNA sequence inserted in the opposite orientation so that it could be targeted by the sense or passenger strand of TS6 siRNA. […] After 24 hr, cells were washed with PBS, lysed in 1×PLG buffer, and firefly and renilla luciferase levels were determined by the Dual-Luciferase™ Reporter Assay system (Promega). […]
# [3] = test system: TS mRNA sequence in opposite orientation targeted by the sense (passenger) strand; experiment: Luciferase assay, vector with TS6 target site for the sense strand; assay type: cell-based, human; conditions: RKO cells, ssiRNA 0.1 nM, 24 hr
# Method: as §1, §2, §3
# [4] = test system: human colon cancer RKO cell line; experiment: Cell proliferation assay (WST-1) in RKO cells; assay type: cell-based; conditions: 6 hr exposure then 96 hr growth, mean ± S.D., at least 3 experiments
# Method: RKO cells were plated in 96-well plates at a density of 800 cells/well. On the following day, cells were incubated with ssiRNA/LF2000 complexes for 6 hr, after which time, the growth medium was replaced, and cells were grown for an additional 96 hr. Similarly, RKO cells were treated with FdU (#F0503, Sigma) for 6 hr followed by medium replacement and then allowed to grow for an additional 96 hr. Cell proliferation/viability was quantified by the WST-1 assay (Roche; Indianapolis, Ind.).
substance,measurement,setting,value
"TS6-dU/dA: unmodified TS-targeted ssiRNA, 5 dU on 3′-end of sense strand, 5 dA on 3′-end of antisense strand; SEQ ID NO: 3 and 4 (sense GGAUAUUGUCAGUCUUUAGGUUUUU; antisense CCUAAAGACUGACAAUAUCCAAAAA; sense: sugars from the 5' end r20 d5, backbone and T or U not given here; antisense: sugars from the 5' end r20 d5, backbone not given here)",suppression of expression of TS protein,[1]; 1 nM,~80%
same,Free TS (%),"[1]; ssiRNA 1 nM, normalized to free TS protein in mock-transfected cells (LF2000) set to 100%, mean ± S.D., 6 experiments",22.6 ± 7.5%
same,"antisense strand targeting, luciferase (in words)",[2],maintained
same,"sense strand targeting, luciferase (in words)",[3],significantly reduced
same,IC50,[4],81.9 nM

# — patent publication US9096853B2, “Modified siRNA molecules incorporating 5-fluoro-2′-deoxyuridine residues to enhance cytotoxicity” (U.S. Department of Veterans Affairs, priority 2012, dated 2015)
